Experimental data from PubChem BioAssay (NCI).
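Growth conditions: 96-well plates. Treatment: test compound, 48 hours, 5 concentrations. Analysis: linear interpolation between bracketing concentrations; unreached endpoints set to highest concentration. Here, GI50 denotes the concentration required for 50% inhibition of growth. At the TGI there is no net growth.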

Tests used:
Experiment in all cases: NCI tumour cell line growth inhibition, 48 h
SNB-19 CNS = system: SNB-19 CNS
HOP-62 NSCLC = system: HOP-62 NSCLC
MDA-MB-435 = system: MDA-MB-435
HT29 colon = system: HT29 colon
TK-10 renal = system: TK-10 renal
CAKI-1 renal = system: CAKI-1 renal
OVCAR-3 ovarian = system: OVCAR-3 ovarian
BT-549 breast = system: BT-549 breast
HCT-15 colon = system: HCT-15 colon
SK-MEL-5 melanoma = system: SK-MEL-5 melanoma
786-0 renal = system: 786-0 renal
HCC-2998 colon = system: HCC-2998 colon
SF-295 CNS = system: SF-295 CNS
SF-268 CNS = system: SF-268 CNS
HOP-92 NSCLC = system: HOP-92 NSCLC
IGROV1 ovarian = system: IGROV1 ovarian
K-562 leukemia = system: K-562 leukemia
HL-60(TB) leukemia = system: HL-60(TB) leukemia
COLO 205 colon = system: COLO 205 colon
A498 renal = system: A498 renal
MOLT-4 leukemia = system: MOLT-4 leukemia
UACC-257 melanoma = system: UACC-257 melanoma
MDA-MB-231 breast = system: MDA-MB-231 breast
SNB-75 CNS = system: SNB-75 CNS
RPMI-8226 leukemia = system: RPMI-8226 leukemia
SK-OV-3 ovarian = system: SK-OV-3 ovarian
OVCAR-5 ovarian = system: OVCAR-5 ovarian
UO-31 renal = system: UO-31 renal
PC-3 prostate = system: PC-3 prostate
T-47D breast = system: T-47D breast
UACC-62 melanoma = system: UACC-62 melanoma
RXF 393 renal = system: RXF 393 renal
SK-MEL-2 melanoma = system: SK-MEL-2 melanoma
CCRF-CEM leukemia = system: CCRF-CEM leukemia
NCI-H460 lung = system: NCI-H460 lung
HS 578T breast = system: HS 578T breast
NCI-H23 lung = system: NCI-H23 lung
MALME-3M melanoma = system: MALME-3M melanoma
M14 melanoma = system: M14 melanoma
A549 NSCLC = system: A549 NSCLC
HCT-116 colon = system: HCT-116 colon
NCI-H522 lung = system: NCI-H522 lung
SW-620 colon = system: SW-620 colon
MCF7 breast = system: MCF7 breast
U251 CNS = system: U251 CNS
SF-539 CNS = system: SF-539 CNS
NCI/ADR-RES ovarian = system: NCI/ADR-RES ovarian
OVCAR-4 ovarian = system: OVCAR-4 ovarian
EKVX NSCLC = system: EKVX NSCLC
NCI-H226 lung = system: NCI-H226 lung
SN12C renal = system: SN12C renal
SK-MEL-28 melanoma = system: SK-MEL-28 melanoma
DU-145 prostate = system: DU-145 prostate
KM12 colon = system: KM12 colon
SR leukemia = system: SR leukemia
OVCAR-8 ovarian = system: OVCAR-8 ovarian
ACHN renal = system: ACHN renal

COc1cc(/C=C/C(=O)c2cc(OC)c(OC)c(OC)c2)ccc1OCc1ccc(F)cc1
GI50 (SNB-19 CNS): 4 µM
TGI (SNB-19 CNS): > 100 µM
GI50 (HOP-62 NSCLC): 3.64 µM
TGI (HOP-62 NSCLC): 37.6 µM
GI50 (MDA-MB-435): 3.6 µM
TGI (MDA-MB-435): > 100 µM
GI50 (HT29 colon): 3.43 µM
TGI (HT29 colon): > 100 µM
GI50 (TK-10 renal): 16.6 µM
TGI (TK-10 renal): > 100 µM
GI50 (CAKI-1 renal): 4.35 µM
TGI (CAKI-1 renal): > 100 µM
GI50 (OVCAR-3 ovarian): 3.84 µM
TGI (OVCAR-3 ovarian): > 100 µM
GI50 (BT-549 breast): 3.36 µM
TGI (BT-549 breast): 15.5 µM
GI50 (HCT-15 colon): 2.66 µM
TGI (HCT-15 colon): > 100 µM
GI50 (SK-MEL-5 melanoma): 3.41 µM
TGI (SK-MEL-5 melanoma): 26.3 µM
GI50 (786-0 renal): 7.22 µM
TGI (786-0 renal): > 100 µM
GI50 (HCC-2998 colon): 2.94 µM
TGI (HCC-2998 colon): 8.17 µM
GI50 (SF-295 CNS): 3.65 µM
TGI (SF-295 CNS): > 100 µM
GI50 (SF-268 CNS): 4.8 µM
TGI (SF-268 CNS): > 100 µM
GI50 (HOP-92 NSCLC): 2.15 µM
TGI (HOP-92 NSCLC): 8.99 µM
GI50 (IGROV1 ovarian): 3.38 µM
TGI (IGROV1 ovarian): > 100 µM
GI50 (K-562 leukemia): 2.94 µM
TGI (K-562 leukemia): > 100 µM
GI50 (HL-60(TB) leukemia): 2.73 µM
TGI (HL-60(TB) leukemia): > 100 µM
GI50 (COLO 205 colon): 5.27 µM
TGI (COLO 205 colon): > 100 µM
GI50 (A498 renal): 48 µM
TGI (A498 renal): > 100 µM
GI50 (MOLT-4 leukemia): 3.14 µM
TGI (MOLT-4 leukemia): > 100 µM
GI50 (UACC-257 melanoma): 3.82 µM
TGI (UACC-257 melanoma): > 100 µM
GI50 (MDA-MB-231 breast): 2.96 µM
TGI (MDA-MB-231 breast): 24.6 µM
GI50 (SNB-75 CNS): 2.06 µM
TGI (SNB-75 CNS): 7.48 µM
GI50 (RPMI-8226 leukemia): 1.68 µM
TGI (RPMI-8226 leukemia): > 100 µM
GI50 (SK-OV-3 ovarian): 3.61 µM
TGI (SK-OV-3 ovarian): 54.6 µM
GI50 (OVCAR-5 ovarian): 3.9 µM
TGI (OVCAR-5 ovarian): > 100 µM
GI50 (UO-31 renal): 3.88 µM
TGI (UO-31 renal): > 100 µM
GI50 (PC-3 prostate): 3.67 µM
TGI (PC-3 prostate): > 100 µM
GI50 (T-47D breast): 3.22 µM
TGI (T-47D breast): > 100 µM
GI50 (UACC-62 melanoma): 3.15 µM
TGI (UACC-62 melanoma): 52.3 µM
GI50 (RXF 393 renal): 3.4 µM
TGI (RXF 393 renal): 49.8 µM
GI50 (SK-MEL-2 melanoma): 8.57 µM
TGI (SK-MEL-2 melanoma): 64.4 µM
GI50 (CCRF-CEM leukemia): 3.13 µM
TGI (CCRF-CEM leukemia): > 100 µM
GI50 (NCI-H460 lung): 4.56 µM
TGI (NCI-H460 lung): > 100 µM
GI50 (HS 578T breast): 6.03 µM
TGI (HS 578T breast): 84.2 µM
GI50 (NCI-H23 lung): 5.29 µM
TGI (NCI-H23 lung): > 100 µM
GI50 (MALME-3M melanoma): 6 µM
TGI (MALME-3M melanoma): > 100 µM
GI50 (M14 melanoma): 5.74 µM
TGI (M14 melanoma): > 100 µM
GI50 (A549 NSCLC): 3.11 µM
TGI (A549 NSCLC): > 100 µM
GI50 (HCT-116 colon): 2.85 µM
TGI (HCT-116 colon): > 100 µM
GI50 (NCI-H522 lung): 2.31 µM
TGI (NCI-H522 lung): 15.5 µM
GI50 (SW-620 colon): 4.31 µM
TGI (SW-620 colon): > 100 µM
GI50 (MCF7 breast): 2.45 µM
TGI (MCF7 breast): > 100 µM
GI50 (U251 CNS): 3.74 µM
TGI (U251 CNS): > 100 µM
GI50 (SF-539 CNS): 2.12 µM
TGI (SF-539 CNS): 5.13 µM
GI50 (NCI/ADR-RES ovarian): 4.2 µM
TGI (NCI/ADR-RES ovarian): > 100 µM
GI50 (OVCAR-4 ovarian): 3.62 µM
TGI (OVCAR-4 ovarian): > 100 µM
GI50 (EKVX NSCLC): 18.4 µM
TGI (EKVX NSCLC): > 100 µM
GI50 (NCI-H226 lung): 3.48 µM
TGI (NCI-H226 lung): > 100 µM
GI50 (SN12C renal): 2.73 µM
TGI (SN12C renal): 15.4 µM
GI50 (SK-MEL-28 melanoma): 6.52 µM
TGI (SK-MEL-28 melanoma): > 100 µM
GI50 (DU-145 prostate): 3.72 µM
TGI (DU-145 prostate): > 100 µM
GI50 (KM12 colon): 4.95 µM
TGI (KM12 colon): > 100 µM
GI50 (SR leukemia): 1.73 µM
TGI (SR leukemia): > 100 µM
GI50 (OVCAR-8 ovarian): 2.88 µM
TGI (OVCAR-8 ovarian): 16.6 µM
GI50 (ACHN renal): 4.92 µM
TGI (ACHN renal): > 100 µM
